Measured values published in patent US8664380B2, “Heterocyclic compound and use thereof” (Takeda Pharmaceutical Company Limited, priority 2008, dated 2014).
Where a name gives a salt, the structure may show the parent alone.

Tests used:
[1] = tested on: plasma renin activity; experiment: Ex vivo plasma renin activity (PRA) test after oral administration; type: in vivo, Macaca fascicularis; conditions: for Macaca fascicularis plasma renin activity, PPA inhibitory activity (%, n = 3-7): male macaca fascicularis, 1 mg/kg orally in 0.5% methylcellulose, plasma 4 hr after administration, amended with vehicle group; for inhibition at 1 mg/kg: Macaca fascicularis, po, 4 h, read-out: Macaca fascicularis plasma renin activity, PPA inhibitory activity (%, n = 3-7)
Procedure: Male macaca fascicularis was used. […] PRA was calculated by the following formula.

[2] = molecular target: T1, Human renin (Homo sapiens, UniProt P00797); experiment: Human renin inhibition; angiotensin I formed from angiotensinogen quantified by EIA; conditions: for Human renin inhibitory activity, inhibitory activity (%) at 0.1 μM: 0.1 μM test compound, substrate human angiotensinogen, 37° C. 30 min; for inhibition at 0.1 µM: read-out: Human renin inhibitory activity, inhibitory activity (%) at 0.1 μM
T1 sequence (P00797 67-406): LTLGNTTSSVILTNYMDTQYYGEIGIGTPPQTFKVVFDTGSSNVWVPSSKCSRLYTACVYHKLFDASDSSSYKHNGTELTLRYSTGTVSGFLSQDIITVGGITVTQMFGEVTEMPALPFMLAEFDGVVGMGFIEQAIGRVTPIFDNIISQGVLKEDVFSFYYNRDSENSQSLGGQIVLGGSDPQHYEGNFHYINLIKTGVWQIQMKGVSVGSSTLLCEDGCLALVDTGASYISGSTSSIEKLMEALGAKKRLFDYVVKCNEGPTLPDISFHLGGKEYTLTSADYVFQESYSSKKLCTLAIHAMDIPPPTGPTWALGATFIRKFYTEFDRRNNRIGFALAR
Procedure: As a substrate for renin activity measurement, the angiotensinogen mentioned in (5) above was used. 1 μl each of the test compound (containing 100% DMSO) was added to each well of a 384-well plate (ABgene). Renin was diluted with a buffer solution for reaction (20 mM sodium phosphate (pH 7.4)) to a concentration of 57 pM, and 14 μl each of the dilution was added to each well. The dilution was left to stand at 37° C. for 10 min, and then 5 μl of each of a 6 μM solution of substrate angiotensinogen was added to each well to initiate the reaction. […] The amount of angiotensin I produced by an enzyme reaction was quantified by Enzyme Immuno Assay (EIA) described below.
Anti-angiotensin I antibody (Peninsula Laboratories Inc.) diluted 5,000-fold with PBS was added to each well of a 384 well black plate (Nalge Nunc International Co., Ltd.) by 25 μl, and left standing overnight at 4° C. to immobilize the antibody in the plate. The antibody solution was removed, PBS solution (100 μl) containing 1% BSA was added to each well, and the mixture was left standing at room temperature for 2 hr for blocking. The blocking solution was removed, and each well was washed 5 times with 100 μl of 0.05% Tween20-PBS. […] Then, a biotinated angiotensin I solution (AnaSpec, 15 μl) prepared to 1.6 nM with a buffer [20 mM tris-hydrochloric acid (pH 7.4), 150 mM sodium chloride, 0.01% BSA, 0.05% Tween20] was added to each well, mixed with a plate mixer and left standing at room temperature for 1 hr. The solutions were removed from each well, and each well was washed 5 times with 100 μl of 0.05% Tween20-PBS. Horseradish peroxydase Streptavidin (PIERCE Biotechnology inc., 25 μl) diluted to 100 ng/ml with a buffer [20 mM tris-hydrochloric acid (pH 7.4), 150 mM sodium chloride, 0.1% BSA, 0.05% Tween 20] was added to each well and the mixture was left standing at room temperature for 30 min. The solutions were removed from each well, and each well was washed 5 times with 100 μl of 0.05% Tween20-PBS. SuperSignal ELISA femto Maximum Sensitivity Substrate (PIERCE Biotechnology Inc.) was added by 25 μl and luminescence intensity was measured by EnVision (Perkin Elmer Inc.). An analytical curve was drawn from the luminescence intensity of wells containing an angiotensin I standard solution, and the amount of angiotensin I produced by an enzyme reaction was calculated and used as an index of renin activity.

| Compound | Macaca fascicularis plasma renin activity, PPA inhibitory activity (%, n = 3-7) [1] | Human renin inhibitory activity, inhibitory activity (%) at 0.1 μM [2] | inhibition at 1 mg/kg [1] | inhibition at 0.1 µM [2] |
| --- | --- | --- | --- | --- |
| N-{(3S,5R)-5-[(1R)-1-hydroxyethyl]piperidin-5-yl}-1-(4-methoxybutyl)-N-(2-methylpropyl)-1H-benzimidazole-2-carboxamide carboxamide dihydrochloride [Example 74-2] | 54% | 96% |  |  |
| COCCCCc1c(C(=O)N(CC(C)C)[C@@H]2CNC[C@H](C(=O)N3CCOCC3)C2)nnn1-c1ccccc1F [Example 233, 1-(2-fluorophenyl)-5-(4-methoxybutyl)-N-(2-methylpropyl)-N-[(3S,5R)-5-(morpholin-4-ylcarbonyl)piperidin-3-yl]-1H-1,2,3-triazole-4-carboxamide hydrochloride] |  |  | 67% | 97% |
| N-{(3S,5R)-5-[(1S)-1-hydroxyethyl]piperidin-5-yl}-1-(4-methoxybutyl)-N-(2-methylpropyl)-1H-benzimidazole-2-carboxamide dihydrochloride [Example 74-1] | 90% | 94% |  |  |
| COCCCCc1c(C(=O)N(CC(C)C)[C@@H]2CNC[C@H](C(=O)N3CCOCC3)C2)nnn1-c1ccccc1Cl [Example 235, 1-(2-chlorophenyl)-5-(4-methoxybutyl)-N-(2-methylpropyl)-N-[(3S,5R)-5-(morpholin-4-ylcarbonyl)piperidin-3-yl]-1H-1,2,3-triazole-4-carboxamide hydrochloride] |  |  | 62% | 97% |
| COCCCCn1c(C(=O)N(CC(C)C)[C@@H]2CNC[C@H](CO)C2)nc2ccccc21 [Example 40, N-[(3S,5R)-5-(hydroxymethyl)piperidin-3-yl]-1-(4-methoxybutyl)-N-(2-methylpropyl)-1H-benzimidazole-2-carboxamide dihydrochloride] |  |  | 75% | 97% |
